# Where “and” joins values, the source holds several entries; their conditions need not be identical. Equal entries are not always repeated. Calls of active or inactive are those of the source.
# Key:
# [1] = target: Induced myeloid leukemia cell differentiation protein Mcl-1 (Homo sapiens, UniProt Q07820); type: functional
# [2] = target: T1, Mannose-6-phosphate isomerase (Homo sapiens, UniProt P34949); assay: MPI inhibition at elevated mannose 6-phosphate – biochemical, fluorescence intensity, high mannose 6-phosphate, primary screen (AID 1220)
# T1 sequence (P34949 whole entry): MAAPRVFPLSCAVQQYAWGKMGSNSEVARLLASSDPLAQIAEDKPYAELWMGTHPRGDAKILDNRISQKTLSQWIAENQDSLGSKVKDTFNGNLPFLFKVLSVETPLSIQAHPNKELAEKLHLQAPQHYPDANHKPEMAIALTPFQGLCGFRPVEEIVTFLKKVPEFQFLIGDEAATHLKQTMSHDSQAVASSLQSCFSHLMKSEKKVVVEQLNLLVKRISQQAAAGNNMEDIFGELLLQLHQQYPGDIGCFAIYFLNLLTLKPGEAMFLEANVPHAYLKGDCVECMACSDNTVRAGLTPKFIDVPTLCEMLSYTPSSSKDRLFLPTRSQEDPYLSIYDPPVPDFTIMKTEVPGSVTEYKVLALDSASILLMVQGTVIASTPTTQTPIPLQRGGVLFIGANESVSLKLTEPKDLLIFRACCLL
# [3] = target: DNA dC->dU-editing enzyme APOBEC-3A (Homo sapiens, UniProt P31941); assay: A3A deaminase inhibition for selectivity – biochemical, dose response (AID 504722); type: functional
# Chain of DNA dC->dU-editing enzyme APOBEC-3A (P31941 whole entry): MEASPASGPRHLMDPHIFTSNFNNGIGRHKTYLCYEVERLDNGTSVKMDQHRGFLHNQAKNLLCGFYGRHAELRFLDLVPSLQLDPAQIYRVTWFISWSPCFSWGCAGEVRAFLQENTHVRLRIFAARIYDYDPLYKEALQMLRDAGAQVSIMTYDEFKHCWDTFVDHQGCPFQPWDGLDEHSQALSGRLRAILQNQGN
# [4] = target: Glucose-6-phosphate 1-dehydrogenase (Homo sapiens, UniProt P11413); assay: inhibition of Homo sapiens G6PD, dose series – biochemical, fluorescence, selectivity assay for P. falciparum G6PD inhibitor project, dose response (AID 504792); type: functional
# Chain of Glucose-6-phosphate 1-dehydrogenase (P11413 whole entry): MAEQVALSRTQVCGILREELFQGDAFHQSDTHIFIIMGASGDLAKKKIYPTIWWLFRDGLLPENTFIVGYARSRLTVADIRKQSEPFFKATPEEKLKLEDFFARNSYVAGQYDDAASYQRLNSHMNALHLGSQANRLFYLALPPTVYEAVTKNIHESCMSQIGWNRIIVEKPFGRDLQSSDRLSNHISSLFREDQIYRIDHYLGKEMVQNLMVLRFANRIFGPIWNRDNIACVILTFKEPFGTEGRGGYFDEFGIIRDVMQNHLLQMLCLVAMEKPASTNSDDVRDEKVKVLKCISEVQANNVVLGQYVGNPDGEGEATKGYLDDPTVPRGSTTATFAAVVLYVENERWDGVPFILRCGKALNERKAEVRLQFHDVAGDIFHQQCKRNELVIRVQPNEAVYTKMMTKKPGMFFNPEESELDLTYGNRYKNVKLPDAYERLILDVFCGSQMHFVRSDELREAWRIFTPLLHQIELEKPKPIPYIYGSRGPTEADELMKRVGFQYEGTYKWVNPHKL
# [5] = target: DNA dC->dU-editing enzyme APOBEC-3G (Homo sapiens, UniProt Q9HC16); assay: Dose Response confirmation of small molecule APOBEC3G DNA Deaminase Inhibitors via a fluorescence-based single-stranded DNA deaminase assay. [Related pubchem assays (depositor defined):AID493012, AID493028]; type: functional
# Chain of DNA dC->dU-editing enzyme APOBEC-3G (Q9HC16 whole entry): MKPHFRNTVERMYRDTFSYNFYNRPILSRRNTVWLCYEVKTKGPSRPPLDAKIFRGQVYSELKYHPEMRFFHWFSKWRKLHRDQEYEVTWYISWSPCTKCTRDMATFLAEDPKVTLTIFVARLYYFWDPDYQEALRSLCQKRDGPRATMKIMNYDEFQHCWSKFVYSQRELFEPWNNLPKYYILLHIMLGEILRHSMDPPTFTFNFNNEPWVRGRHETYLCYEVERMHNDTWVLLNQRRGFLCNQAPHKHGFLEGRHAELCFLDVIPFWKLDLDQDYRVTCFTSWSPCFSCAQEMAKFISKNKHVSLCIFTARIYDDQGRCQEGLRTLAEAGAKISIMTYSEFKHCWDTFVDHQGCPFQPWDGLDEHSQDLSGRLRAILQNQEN
# Hexokinase HKDC1 = target: T2, Hexokinase HKDC1 (Homo sapiens, UniProt Q2TB90); assay: inhibition of HKDC1 glucose phosphorylation – biochemical, W721R variant, dose response (AID 504729); type: functional
# T2 sequence (Q2TB90 whole entry): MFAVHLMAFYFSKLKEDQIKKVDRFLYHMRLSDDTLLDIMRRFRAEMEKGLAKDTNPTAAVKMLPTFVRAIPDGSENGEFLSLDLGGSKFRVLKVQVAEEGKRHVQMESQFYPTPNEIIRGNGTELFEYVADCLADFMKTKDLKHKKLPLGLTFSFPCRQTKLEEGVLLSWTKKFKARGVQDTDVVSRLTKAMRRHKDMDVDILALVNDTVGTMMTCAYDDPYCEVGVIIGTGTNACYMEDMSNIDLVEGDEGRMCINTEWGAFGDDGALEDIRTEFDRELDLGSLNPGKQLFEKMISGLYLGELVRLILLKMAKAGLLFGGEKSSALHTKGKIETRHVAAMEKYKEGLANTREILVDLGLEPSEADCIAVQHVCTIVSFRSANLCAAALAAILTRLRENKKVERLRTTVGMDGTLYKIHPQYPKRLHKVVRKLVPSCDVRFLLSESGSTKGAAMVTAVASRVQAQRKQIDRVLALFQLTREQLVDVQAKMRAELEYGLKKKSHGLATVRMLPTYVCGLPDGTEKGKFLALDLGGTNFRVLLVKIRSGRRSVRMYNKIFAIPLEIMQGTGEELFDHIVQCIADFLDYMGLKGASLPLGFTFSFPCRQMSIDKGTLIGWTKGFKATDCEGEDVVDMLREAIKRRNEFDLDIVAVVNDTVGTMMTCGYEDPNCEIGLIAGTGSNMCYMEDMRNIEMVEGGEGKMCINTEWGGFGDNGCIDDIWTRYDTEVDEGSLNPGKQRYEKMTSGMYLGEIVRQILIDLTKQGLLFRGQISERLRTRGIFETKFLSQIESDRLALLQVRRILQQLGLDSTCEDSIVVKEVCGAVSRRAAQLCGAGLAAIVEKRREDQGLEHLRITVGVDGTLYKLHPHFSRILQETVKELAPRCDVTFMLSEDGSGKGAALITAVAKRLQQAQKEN
# [6] = target: DNA damage-inducible transcript 3 protein (Mus musculus, UniProt P35639); type: functional, Cricetulus griseus
# Chain of DNA damage-inducible transcript 3 protein (P35639 whole entry): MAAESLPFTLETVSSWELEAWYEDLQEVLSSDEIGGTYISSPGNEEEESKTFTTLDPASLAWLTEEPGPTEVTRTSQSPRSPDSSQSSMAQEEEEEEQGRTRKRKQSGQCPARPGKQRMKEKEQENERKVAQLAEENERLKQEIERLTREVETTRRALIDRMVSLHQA
# [7] = reduction of Shn3 3'UTR-driven luciferase in osteoblasts – cell-based, Clone20 osteoblasts, firefly luciferase, cherry-picked, dose response (AID 624132); type: functional;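 further: firefly luciferase luminescence from reporter carrying the Shn3 3'UTR in osteoblasts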
# [8] = loss of viability in HepG2 cells – cell-based, CellTiter-Glo, cherry-picked, cytotoxicity control for Shn3 inhibitor project, dose response (AID 624134); type: functional
# [9] = non-specific 3'UTR reporter inhibition in Clone20-Shn3RL – cell-based, Renilla luciferase, cherry-picked, counter-screen for Shn3 inhibitor project, dose response (AID 624133); type: functional
# Paired box protein Pax-8 = Paired box protein Pax-8 (Homo sapiens, UniProt Q06710); assay: PAX8 transcriptional activity inhibition in RMG-I – RMG-I cells, luciferase, cherry-pick, dose response (AID 687027); type: functional, cell-based;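 further: luciferase reporter driven by Pax8 target thyroperoxidase promoter measured by SteadyGlo luminescence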
# Chain of Paired box protein Pax-8 (Q06710 whole entry): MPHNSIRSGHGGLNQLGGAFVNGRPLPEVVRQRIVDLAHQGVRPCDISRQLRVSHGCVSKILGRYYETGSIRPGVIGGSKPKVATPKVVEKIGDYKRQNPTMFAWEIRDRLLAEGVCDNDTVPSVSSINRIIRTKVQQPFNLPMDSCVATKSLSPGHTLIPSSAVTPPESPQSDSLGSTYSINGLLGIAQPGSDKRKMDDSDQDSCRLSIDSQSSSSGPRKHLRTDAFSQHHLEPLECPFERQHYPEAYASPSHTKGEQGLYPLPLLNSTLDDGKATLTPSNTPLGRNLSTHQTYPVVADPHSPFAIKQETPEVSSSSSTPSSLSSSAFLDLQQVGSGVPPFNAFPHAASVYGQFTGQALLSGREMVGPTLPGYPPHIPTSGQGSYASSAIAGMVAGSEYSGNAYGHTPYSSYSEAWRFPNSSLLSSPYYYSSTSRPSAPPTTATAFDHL
# Caspase-6 = target: T3, Caspase-6 (Homo sapiens, UniProt P55212); assay: inhibition of CASP6 peptide cleavage – biochemical, VEID-R110 fluorescence, cherry-pick, dose response (AID 720632)
# T3 sequence (P55212 whole entry): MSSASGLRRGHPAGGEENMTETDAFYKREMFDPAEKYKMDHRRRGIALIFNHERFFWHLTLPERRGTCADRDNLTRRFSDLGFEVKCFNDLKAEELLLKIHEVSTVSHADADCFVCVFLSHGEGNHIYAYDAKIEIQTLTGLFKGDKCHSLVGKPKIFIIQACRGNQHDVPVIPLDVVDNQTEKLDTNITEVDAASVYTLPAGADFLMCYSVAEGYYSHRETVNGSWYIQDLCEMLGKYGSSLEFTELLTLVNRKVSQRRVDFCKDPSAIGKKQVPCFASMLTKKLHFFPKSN
# [10] = reduced cellular PGC1a acetyl-lysine signal – cell-based, cherry-picked samples, dose response (AID 720514); type: functional;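 further: potency may reflect raised or lowered acetylation signal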
# [11] = system: Streptococcus sp. 'group A'; assay: Streptococcus pyogenes SK(-)GAS viability under kanamycin – luminescence, BacTiterGlo, confirmation, counter-screen for streptokinase expression inhibitor project, dose response (AID 1900); type: functional, organism-based
# Beta-galactosidase = Beta-galactosidase (Escherichia coli, UniProt Q8VNN2); assay: PubChem AID 485352; type: functional
# Chain of Beta-galactosidase (Q8VNN2 whole entry): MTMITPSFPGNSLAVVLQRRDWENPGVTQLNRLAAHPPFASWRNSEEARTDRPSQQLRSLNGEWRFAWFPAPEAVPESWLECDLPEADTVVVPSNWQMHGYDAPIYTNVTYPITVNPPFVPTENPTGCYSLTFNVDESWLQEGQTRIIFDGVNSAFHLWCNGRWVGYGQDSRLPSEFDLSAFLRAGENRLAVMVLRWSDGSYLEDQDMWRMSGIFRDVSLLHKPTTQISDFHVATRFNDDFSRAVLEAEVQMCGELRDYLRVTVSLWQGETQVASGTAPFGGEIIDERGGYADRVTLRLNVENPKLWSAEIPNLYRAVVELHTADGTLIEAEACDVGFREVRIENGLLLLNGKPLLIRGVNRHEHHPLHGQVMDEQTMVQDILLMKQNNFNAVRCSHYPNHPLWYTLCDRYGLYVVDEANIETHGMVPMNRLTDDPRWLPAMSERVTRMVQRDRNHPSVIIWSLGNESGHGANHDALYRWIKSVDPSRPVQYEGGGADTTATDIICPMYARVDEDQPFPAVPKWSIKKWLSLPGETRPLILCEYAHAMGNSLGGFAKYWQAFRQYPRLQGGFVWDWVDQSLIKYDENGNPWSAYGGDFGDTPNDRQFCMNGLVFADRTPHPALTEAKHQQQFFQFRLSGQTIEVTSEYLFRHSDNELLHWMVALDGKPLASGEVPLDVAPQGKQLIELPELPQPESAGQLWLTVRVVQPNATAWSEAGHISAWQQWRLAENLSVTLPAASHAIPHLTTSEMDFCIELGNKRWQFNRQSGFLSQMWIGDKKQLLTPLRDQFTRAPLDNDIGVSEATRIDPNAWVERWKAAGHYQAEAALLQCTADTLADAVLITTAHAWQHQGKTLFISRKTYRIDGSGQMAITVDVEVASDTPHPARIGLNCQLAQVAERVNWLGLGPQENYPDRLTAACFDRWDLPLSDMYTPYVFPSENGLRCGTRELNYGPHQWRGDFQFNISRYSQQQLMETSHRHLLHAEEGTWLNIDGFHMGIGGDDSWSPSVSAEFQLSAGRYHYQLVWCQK
# [12] = Trypanosoma cruzi growth suppression in host cells – NIH3T3 host cells, beta-gal luminescence, confirmation (AID 2044); type: functional, cell-based;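 further: intracellular parasites grown in NIH/3T3 mouse fibroblasts as host cells; luminescent beta-galactosidase reporter signal from transgenic T. cruzi replicating inside host cells; inhibitors lower the luminescence signal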
# [13] = target: T4, Type-1 angiotensin II receptor (Homo sapiens, UniProt P30556); assay: antagonism of angiotensin II type 1 receptor – cell-based, uHTS hits, selectivity assay for APJ receptor antagonist project, dose response (AID 463214); type: functional;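 further: antagonist potency against angiotensin II stimulated AT1 response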
# T4 sequence (P30556 whole entry): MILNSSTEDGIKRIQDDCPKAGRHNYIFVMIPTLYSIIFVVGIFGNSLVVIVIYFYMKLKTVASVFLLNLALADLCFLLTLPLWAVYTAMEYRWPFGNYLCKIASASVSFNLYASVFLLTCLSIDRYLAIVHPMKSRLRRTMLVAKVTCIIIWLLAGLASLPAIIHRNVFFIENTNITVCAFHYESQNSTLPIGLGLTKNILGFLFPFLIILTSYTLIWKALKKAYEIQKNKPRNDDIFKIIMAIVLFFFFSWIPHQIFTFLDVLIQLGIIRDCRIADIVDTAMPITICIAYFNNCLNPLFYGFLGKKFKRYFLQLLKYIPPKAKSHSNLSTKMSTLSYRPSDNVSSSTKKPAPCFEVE
# [14] = NIH3T3 cell viability loss – ATP luminescence, mouse fibroblasts, counter-screen, dose response (AID 2010); type: functional, cell-based;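 further: cells exposed to compound for about 90 hours before reading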
# Streptococcus = assay: GAS UMAA2166 growth inhibition – luminescence, BacTiterGlo, counter-screen for streptokinase expression inhibitor project, dose response (AID 1915); type: functional, organism-based;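 further: potency for reduction of bacterial viability or growth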
# [15] = THP-1 cell cytotoxicity, dose response, cytotoxicity control for non-replicating M. tuberculosis project (AID 489025); type: functional
# [16] = HepG2 cell cytotoxicity, dose response, cytotoxicity control for non-replicating M. tuberculosis project (AID 489018); type: functional; conditions: Mycobacterium tuberculosis
# [17] = Vero E6 cell cytotoxicity, dose response, cytotoxicity control for non-replicating M. tuberculosis project, secondary assay (AID 492998); type: functional, VeroE6; conditions: Vero C1008
# cells = type: functional
# [18] = target: T5, Aryl hydrocarbon receptor (Homo sapiens, UniProt P35869); assay: Luminescence-based cell-based high throughput dose response assay for activators of the Aryl Hydrocarbon Receptor (AHR). [Related pubchem assays: 2796 (Primary screen (AHR activators in singlicate)), 2845 (Confirmation screen (AHR activators in triplicate)), 434939 (Counterscreen (PXR activators in triplicate)), 2804 (Summary (AHR activators))]; type: ADME
# T5 sequence (P35869 whole entry): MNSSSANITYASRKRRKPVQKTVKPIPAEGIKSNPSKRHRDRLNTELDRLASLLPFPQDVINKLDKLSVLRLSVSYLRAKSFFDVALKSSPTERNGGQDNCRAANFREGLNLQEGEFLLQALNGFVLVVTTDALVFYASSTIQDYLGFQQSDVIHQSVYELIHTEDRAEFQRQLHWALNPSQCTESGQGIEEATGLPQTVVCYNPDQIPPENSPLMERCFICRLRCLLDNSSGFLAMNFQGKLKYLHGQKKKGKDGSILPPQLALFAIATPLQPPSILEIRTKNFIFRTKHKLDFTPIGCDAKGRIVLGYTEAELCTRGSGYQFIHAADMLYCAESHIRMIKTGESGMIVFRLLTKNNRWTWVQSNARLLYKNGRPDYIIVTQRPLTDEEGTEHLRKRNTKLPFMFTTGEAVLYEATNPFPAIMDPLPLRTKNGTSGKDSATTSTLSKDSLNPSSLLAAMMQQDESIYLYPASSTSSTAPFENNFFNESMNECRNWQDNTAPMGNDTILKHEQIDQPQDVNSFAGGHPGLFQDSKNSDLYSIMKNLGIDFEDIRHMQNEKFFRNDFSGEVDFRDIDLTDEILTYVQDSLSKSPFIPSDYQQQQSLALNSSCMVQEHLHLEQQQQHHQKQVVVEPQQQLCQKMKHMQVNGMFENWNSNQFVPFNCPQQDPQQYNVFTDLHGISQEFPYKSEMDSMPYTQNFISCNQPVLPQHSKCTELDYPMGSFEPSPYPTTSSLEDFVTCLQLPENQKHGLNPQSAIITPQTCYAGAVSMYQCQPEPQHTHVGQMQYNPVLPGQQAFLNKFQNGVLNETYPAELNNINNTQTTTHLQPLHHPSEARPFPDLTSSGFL
# Trypsin = Trypsin (Sus scrofa, UniProt P00761); assay: trypsin protease activity blockade – biochemical, quenched peptide fluorescence, cherry-pick, selectivity assay for Rce1 protease inhibitor project, dose response (AID 488789)
# Chain of Trypsin (P00761 whole entry): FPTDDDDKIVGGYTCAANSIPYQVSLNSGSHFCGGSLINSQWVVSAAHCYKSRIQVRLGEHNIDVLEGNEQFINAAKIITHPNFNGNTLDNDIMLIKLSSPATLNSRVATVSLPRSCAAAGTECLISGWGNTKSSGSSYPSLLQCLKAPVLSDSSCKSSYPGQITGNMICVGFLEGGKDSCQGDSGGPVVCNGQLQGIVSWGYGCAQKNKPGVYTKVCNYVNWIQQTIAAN
# CAAX prenyl protease 2 = target: T6, CAAX prenyl protease 2 (Saccharomyces cerevisiae S288c, UniProt Q03530); type: biochemical
# T6 sequence (Q03530 whole entry): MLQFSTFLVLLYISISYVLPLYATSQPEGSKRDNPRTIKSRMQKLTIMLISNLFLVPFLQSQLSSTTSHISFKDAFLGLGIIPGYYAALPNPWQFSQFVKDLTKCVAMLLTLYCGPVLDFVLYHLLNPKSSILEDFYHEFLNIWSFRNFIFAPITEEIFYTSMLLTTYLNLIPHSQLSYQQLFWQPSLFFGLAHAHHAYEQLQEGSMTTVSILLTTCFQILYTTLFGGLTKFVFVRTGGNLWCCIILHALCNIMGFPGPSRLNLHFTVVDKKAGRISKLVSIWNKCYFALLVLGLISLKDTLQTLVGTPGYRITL
# Bcl-2-related protein A1 = target: T7, Bcl-2-related protein A1 (Mus musculus, UniProt Q07440); type: functional;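 further: confirmatory dose–response counterscreen on Bfl-1, used to check hits from a UBC13 polyubiquitin inhibitor campaign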
# T7 sequence (Q07440 whole entry): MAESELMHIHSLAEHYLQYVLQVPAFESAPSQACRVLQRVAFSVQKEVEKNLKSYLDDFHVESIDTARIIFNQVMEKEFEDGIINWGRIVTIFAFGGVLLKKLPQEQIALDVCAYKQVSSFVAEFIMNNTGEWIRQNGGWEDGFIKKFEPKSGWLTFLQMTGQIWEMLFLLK
# [19] = target: T8, Ubiquitin-conjugating enzyme E2 N (Homo sapiens, UniProt P61088); type: functional
# T8 sequence (P61088 whole entry): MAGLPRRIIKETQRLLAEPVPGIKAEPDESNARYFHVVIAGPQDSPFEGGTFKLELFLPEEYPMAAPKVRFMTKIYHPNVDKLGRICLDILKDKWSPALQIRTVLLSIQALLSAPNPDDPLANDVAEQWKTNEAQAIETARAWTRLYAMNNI
# [20] = target: T8, Ubiquitin-conjugating enzyme E2 N; type: functional; remark: listed apart in the source
# Chain of Induced myeloid leukemia cell differentiation protein Mcl-1 (Q07820 whole entry): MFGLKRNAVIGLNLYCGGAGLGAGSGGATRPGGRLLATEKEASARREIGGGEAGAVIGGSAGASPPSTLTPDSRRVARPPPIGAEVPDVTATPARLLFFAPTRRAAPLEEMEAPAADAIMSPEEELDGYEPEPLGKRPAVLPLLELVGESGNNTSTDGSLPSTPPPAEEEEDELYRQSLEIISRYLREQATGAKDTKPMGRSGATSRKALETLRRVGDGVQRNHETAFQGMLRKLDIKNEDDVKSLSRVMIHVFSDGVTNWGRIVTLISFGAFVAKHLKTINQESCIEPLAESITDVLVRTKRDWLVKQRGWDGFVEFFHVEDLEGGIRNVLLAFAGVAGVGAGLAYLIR
smiles,measurement,setting,value
O=S(=O)(Nc1cc(Sc2nc[nH]n2)c(O)c2ccccc12)c1ccccc1,IC50,[1],11.7 µM (active)
same,IC50,[2],3.32 µM (active)
same,IC50,[3],> 100 µM (inactive)
same,IC50,[4],21.1 µM (inactive)
same,IC50,[5],3.16 µM (active)
same,IC50,Hexokinase HKDC1,9.93 µM (active)
same,Absolute IC50 (CHOP),[6],10 µM
same,AC50,[7],7.55 µM (active)
same,AC50,[8],26.1 µM (active)
same,AC50,[9],12.4 µM (active)
same,AC50,Paired box protein Pax-8,9.52 µM (active)
same,AC50,Caspase-6,0.911 µM (active)
same,AC50,[10],9.88 µM (active)
N=C1S/C(=C\c2ccco2)C(=O)N1c1nccs1,EC50,[11],3.66 µM (active)
same,EC50,Beta-galactosidase,> 40 µM (inactive)
same,EC50,[12],2.11 µM (active)
same,IC50,[13],7.86 µM (active)
same,EC50,[14],> 30 µM (not active)
same,EC50,Streptococcus,9.61 µM (active)
same,CC50,[15],15.7 µM (active)
same,CC50,[16],> 20 µM (active)
same,CC50,[17],9.33 µM (active)
same,IC50,cells,0.2 µM (active)
CCOC(=O)Cc1cc(-c2ccc(O)cc2)nc2ccc3ccccc3c12,EC50,[18],1.47 µM (active)
same,Absolute IC50 (CHOP),[6],10 µM
c1ccc(-n2nnnc2SCc2cn3cccnc3n2)cc1,AC50,Trypsin,18.6 µM (active)
same,AC50,CAAX prenyl protease 2,10.5 µM (active)
C[C@@H]1O[C@@H](O[C@H]2[C@H](Oc3cc(O)c4c(c3)O[C@H](c3ccc(O)cc3)CC4=O)O[C@H](CO)[C@@H](O)[C@@H]2O)[C@H](O)[C@H](O)[C@H]1O [NARINGIN],IC50,Bcl-2-related protein A1,> 20 µM (inactive)
same,IC50,[19],12.2 µM (active) and 8.7 µM (active)
same,IC50,[20],5.77 µM (active) and 6.66 µM (active)

# Source: ChEMBL document CHEMBL1201862, “PubChem BioAssay data set” (2004)
